Measurements taken from ChEMBL document CHEMBL4842340, “Development of Cagrilintide, a Long-Acting Amylin Analogue” (J Med Chem, 2021).
In brackets after ≈: the same amount, converted by molar mass. *1 amine or outer side, *2 acyl side, *3 side chain or, on linkers, in order; H or OH if unused. Where a SMILES comes first, the peptide text is derived from it. Bridges are numbered along the chain shown (N, C = ends). The star is where a group is joined. C20 diacid = O=C(O)CCCCCCCCCCCCCCCCCCC(=O)*; γGlu = O=C(O)[C@H](CCC(=O)[*:2])N[*:1]

Legend:
[1] = Agonist activity at human AMY3R (CT+RAMP3) expressed in Hollex1 cells incubated for 3 hrs by luminescence assay; format: cell-based; conditions: Hollex1, 3 h
[2] = Agonist activity at human calcitonin receptor expressed in BHK570 cells assessed as increase in intracellular cAMP concentration incubated for 3 hrs in absence of albumin by CRE luciferase reporter gene assay; format: cell-based; conditions: BHK570, 3 h
[3] = organism: Homo sapiens; assay: Ratio of EC50 for human calcitonin receptor expressed in BHK570 cells to EC50 for human AMY3R (CT+RAMP3) expressed in Hollex1 cells; format: cell-based
[4] = Agonist activity at rat AMY3R (CT+RAMP3) expressed in tk-ts13 cells assessed as increase in intracellular cAMP level incuabted for 25 mins by CRE luciferase reporter gene assay; format: cell-based; conditions: tk-ts13, 25 min
[5] = Agonist activity at rat calcitonin receptor expressed in BHK-13 cells assessed as increase in intracellular cAMP concentration incubated for 25 mins by CRE luciferase reporter gene assay; format: cell-based; conditions: BHK-13, 25 min
[6] = organism: Rattus norvegicus; assay: Ratio of EC50 for rat calcitonin receptor expressed in BHK-13 cells to EC50 for rat AMY3R (CT+RAMP3) expressed in tk-ts13 cells; format: cell-based
[7] = Solubility of the compound in lactate at pH 3 by UPLC analysis; format: physicochemical; conditions: lactate buffer
[8] = Solubility of the compound in lactate at pH 4 by UPLC analysis; format: physicochemical; conditions: lactate buffer
[9] = Solubility of the compound in lactate at pH 5 by UPLC analysis; format: physicochemical; conditions: lactate buffer
[10] = Solubility of the compound in bis-tris propane at pH 6 by UPLC analysis; format: physicochemical; conditions: bis-tris propane buffer
[11] = Solubility of the compound in bis-tris propane at pH 6.5 by UPLC analysis; format: physicochemical; conditions: bis-tris propane buffer
[12] = Solubility of the compound in bis-tris propane at pH 7 by UPLC analysis; format: physicochemical; conditions: bis-tris propane buffer
[13] = Solubility of the compound in bis-tris propane at pH 7.5 by UPLC analysis; format: physicochemical; conditions: bis-tris propane buffer
[14] = Solubility of the compound in bis-tris propane at pH 8 by UPLC analysis; format: physicochemical; conditions: bis-tris propane buffer
[15] = target: Insulin (Homo sapiens) (UniProt P01308); assay: Effect on insulin (unknown origin) amyloid fibril formation assessed as lag time in glycyl-glycine buffer at pH 4 measured after 45 hrs by thioflavin-T fluorescence assay
[16] = target: Insulin (Homo sapiens) (UniProt P01308); assay: Effect on insulin (unknown origin) amyloid fibril formation assessed as peptide recovery in glycyl-glycine buffer at pH 4 measured after 45 hrs by thioflavin-T fluorescence assay relative to control; set-up: concentration or dose not given beside the values
[17] = target: Insulin (Homo sapiens) (UniProt P01308); assay: Effect on insulin (unknown origin) amyloid fibril formation assessed as lag time in HEPES buffer at pH 7.5 measured after 45 hrs by thioflavin-T fluorescence assay
[18] = test system: Rattus norvegicus; assay: Reduction in food intake in Sprague-Dawley rat at 3 nmol/kg, sc administered as single dose measured upto 24 hrs relative to control; format: functional; set-up: scale not given: the % may be the effect or the level left; conditions: time hrs <=24
[19] = test system: Rattus norvegicus; assay: Reduction in food intake in Sprague-Dawley rat at 3 nmol/kg, sc administered as single dose measured after 24 to 48 hrs relative to control; format: functional; set-up: scale not given: the % may be the effect or the level left; conditions: time 24-48 hrs
[20] = target: Insulin (Homo sapiens) (UniProt P01308); assay: Effect on insulin (unknown origin) amyloid fibril formation assessed as peptide recovery in HEPES buffer at pH 7.5 measured after 45 hrs by thioflavin-T fluorescence assay relative to control

Insulin (Homo sapiens), sequence (P01308 whole entry): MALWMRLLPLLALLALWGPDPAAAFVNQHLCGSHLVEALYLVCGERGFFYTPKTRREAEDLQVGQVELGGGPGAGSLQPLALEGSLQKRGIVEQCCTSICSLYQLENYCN

CC[C@H](C)[C@H](NC(=O)[C@@H]1CCCN1C(=O)CNC(=O)[C@H](Cc1ccccc1)NC(=O)[C@H](CC(N)=O)NC(=O)[C@H](CC(N)=O)NC(=O)[C@H](CO)NC(=O)[C@H](CO)NC(=O)[C@H](Cc1c[nH]cn1)NC(=O)[C@H](Cc1cnc[nH]1)NC(=O)[C@H](CC(C)C)NC(=O)[C@H](Cc1ccccc1)NC(=O)[C@H](CCC(=O)O)NC(=O)[C@H](C)NC(=O)[C@H](CC(C)C)NC(=O)[C@H](CCCNC(=N)N)NC(=O)[C@H](CCC(N)=O)NC(=O)[C@@H](NC(=O)[C@H](C)NC(=O)[C@@H]1CSSC[C@H](NC(=O)[C@H](CCCCN)NC(=O)CC[C@H](NC(=O)CC[C@H](NC(=O)CCCCCCCCCCCCCCCCCCC(=O)O)C(=O)O)C(=O)O)C(=O)N[C@@H](CC(N)=O)C(=O)N[C@@H]([C@@H](C)O)C(=O)N[C@@H](C)C(=O)N[C@@H]([C@@H](C)O)C(=O)N1)[C@@H](C)O)C(=O)N[C@@H](CC(C)C)C(=O)N1CCC[C@H]1C(=O)N1CCC[C@H]1C(=O)N[C@H](C(=O)N[C@@H](CC(N)=O)C(=O)N[C@H](C(=O)NCC(=O)N[C@@H](CO)C(=O)N[C@@H](Cc1cnc[nH]1)C(=O)N[C@H](C(=O)N[C@@H](Cc1ccc(O)cc1)C(N)=O)[C@@H](C)O)C(C)C)[C@@H](C)O ({C20 diacid-γGlu-γGlu}-KCNTATCATQRLAEFLHHSSNNFGPILPPTNVGSHTY-NH2; disulfide 2-7)
EC50 [1]: 0.297 nM | EC50 [2]: 0.347 nM | Ratio EC50 [3]: 1 | EC50 [4]: 0.623 nM | EC50 [5]: 4.97 nM | Ratio EC50 [6]: 8 | solubility [7]: 200 µM (≈ 922 µg/mL) | solubility [8]: 200 µM (≈ 922 µg/mL) | solubility [9]: 200 µM (≈ 922 µg/mL) | solubility [10]: 200 µM (≈ 922 µg/mL) | solubility [11]: 200 µM (≈ 922 µg/mL) | solubility [12]: 200 µM (≈ 922 µg/mL) | solubility [13]: 200 µM (≈ 922 µg/mL) | solubility [14]: 200 µM (≈ 922 µg/mL) | TIME [15]: 16 h | Activity [16]: 35% | TIME [17]: 4 h | Activity [18]: 46% | Activity [19]: 21%

CC[C@H](C)[C@H](NC(=O)[C@@H]1CCCN1C(=O)CNC(=O)[C@H](Cc1ccccc1)NC(=O)[C@H](CO)NC(=O)[C@H](CO)NC(=O)[C@H](CO)NC(=O)[C@H](CO)NC(=O)[C@H](CCCNC(=N)N)NC(=O)[C@H](Cc1cnc[nH]1)NC(=O)[C@H](CC(C)C)NC(=O)[C@H](Cc1ccccc1)NC(=O)[C@H](CCC(=O)O)NC(=O)[C@H](C)NC(=O)[C@H](CC(C)C)NC(=O)[C@H](CCCNC(=N)N)NC(=O)[C@H](CCC(N)=O)NC(=O)[C@@H](NC(=O)[C@H](C)NC(=O)[C@@H]1CSSC[C@H](NC(=O)[C@H](Cc2cnc[nH]2)NC(=O)CC[C@H](NC(=O)CCCCCCCCCCCCCCCCCCC(=O)O)C(=O)O)C(=O)N[C@@H](CC(N)=O)C(=O)N[C@@H]([C@@H](C)O)C(=O)N[C@@H](C)C(=O)N[C@@H]([C@@H](C)O)C(=O)N1)[C@@H](C)O)C(=O)N[C@@H](CC(C)C)C(=O)N1CCC[C@H]1C(=O)N1CCC[C@H]1C(=O)N[C@H](C(=O)N[C@@H](CC(=O)O)C(=O)N[C@H](C(=O)NCC(=O)N[C@@H](CO)C(=O)N[C@@H](CC(=O)O)C(=O)N[C@H](C(=O)N[C@@H](Cc1ccc(O)cc1)C(N)=O)[C@@H](C)O)C(C)C)[C@@H](C)O ({C20 diacid-γGlu}-HCNTATCATQRLAEFLHRSSSSFGPILPPTDVGSDTY-NH2; disulfide 2-7)
EC50 [1]: 0.166 nM | EC50 [2]: 0.18 nM | Ratio EC50 [3]: 1 | EC50 [4]: 0.278 nM | EC50 [5]: 1.58 nM | Ratio EC50 [6]: 6 | solubility [7]: 200 µM (≈ 886 µg/mL) | solubility [9]: 5 µM (≈ 22.2 µg/mL) | solubility [10]: 200 µM (≈ 886 µg/mL) | solubility [11]: 200 µM (≈ 886 µg/mL) | solubility [12]: 200 µM (≈ 886 µg/mL) | solubility [13]: 200 µM (≈ 886 µg/mL) | solubility [14]: 200 µM (≈ 886 µg/mL) | TIME [15]: 45 h | Activity [16]: 57% | TIME [17]: 45 h | Activity [20]: 94%
